Data taken from patent US20080171051A1, “Cancer Treatment” (priority 2003, published 2008).

Tests used:
[1] = test system: HLacZ cell line; assay: Flow cytometric analysis of apoptosis, HLacZ control cell line; format: cell-based, human; details: 5 μM 5-FU for 72 hours
Procedure: (§1) Generation of c-FLIP overexpressing cell lines. c-FLIPL and c-FLIPS coding regions were PCR amplified and ligated into the pcDNA/V5-His TOPO vector according to the manufacturer's instructions (Life Technologies Inc.). HCT116p53^+/+ cells were co-transfected with 10 μg of each c-FLIP expression construct and 1 μg of a construct expressing a puromycin resistance gene (pIRESpuro3, Clontech) using GeneJuice. Stably transfected HCT116 cells were selected and maintained in medium supplemented with 1 μg/ml puromycin (Life Technologies Inc.). Stable overexpression of c-FLIP was assessed by Western blot analysis.
(§2) Flow Cytometric Analysis. Cells were seeded at 1×10^5 per well of a 6-well tissue culture plate. […] DNA content of harvested cells was evaluated after propidium iodide staining of cells using the EPICS XL Flow Cytometer (Coulter, Miami, Fla.).

[2] = test system: HFL24 cells; assay: Flow cytometric analysis of apoptosis, HFL24 cells (c-FLIPL-overexpressing HCT116); format: cell-based, human; details: 5 μM 5-FU for 72 hours
Procedure: as §1, §2

[3] = test system: HFL17 cells; assay: Flow cytometric analysis of apoptosis, HFL17 cells (c-FLIPL-overexpressing HCT116); format: cell-based, human; details: 5 μM 5-FU for 72 hours
Procedure: as §1, §2

[4] = patients with metastatic colorectal cancer; cited from earlier work
[5] = test system: HCT116p53+/+ cells; assay: MTT cell viability assay, HCT116 p53 wild type cells; format: cell-based, human; details: for IC60(72h) dose: HCT116p53+/+ cells; for effect on cell viability: HCT116 cells, presence or absence of drug; for synergy with CH-11 (RI from MTT): HCT116 p53 wild-type, drug 24 hours then CH-11 200 ng/ml for 48 hours
Procedure: (§3) Cell Viability Assays. […] To investigate drug-induced Fas-mediated apoptosis, cells were seeded at 2,000-5,000 cells per well on 96-well plates. […] To assess chemotherapy/siRNA interactions, 20,000-50,000 cells were seeded per well on 24-well plates. Twenty-four hours later, the cells were transfected with FLIP-targeted (FT) or scrambled siRNA (SC). […] MTT (0.5 mg/ml) was added to each well and the cells were incubated at 37° C. for a further 2 hours. The culture medium was removed and formazan crystals reabsorbed in 200 μl (96-well) or 1 ml (24-well) DMSO. Cell viability was determined by reading the absorbance of each well at 570 nm using a microplate reader (Molecular Devices, Wokingham, England).
(§4) siRNA transfections. FLIP-targeted siRNA was designed using the Ambion siRNA target finder and design tool (www.ambion.com/techlib/misc/siRNA_finder.html) to inhibit both splice variants of c-FLIP. Both c-FLIP-targeted (FT) and scrambled control (SC) siRNA were obtained from Xeragon (Germantown, Md.).
(§5) Statistical Analyses. The nature of the interaction between the chemotherapeutic drugs and FLIP-targeted siRNAs was determined by calculating the combination index (CI) according to the method of Chou and Talalay (14). CI values were calculated from isobolograms generated using the CalcuSyn software programme (Microsoft Windows). […] An unpaired two-tailed t test was used to determine the significance of changes in levels of apoptosis between different treatment groups.

[6] = test system: Fas; assay: Western blot analysis of Fas expression in MCF-7 cells; format: cell-based; details: 72 hours after IC60 dose
Procedure: (§6) Western Blotting. Western blots were performed as previously described (Longley et al., 2002). The Fas/CD95, Bcl-2 and BID (Santa Cruz Biotechnology, Santa Cruz, Calif.), caspase 8 (Oncogene Research Products, Darmstadt, Germany), PARP (Pharmingen, BD Biosciences, Oxford, England), c-FLIP (NF-6, Alexis, Bingham UK) DcR3 (Imgenex, San Diego, Calif.) mouse monoclonal antibodies were used in conjunction with a horseradish peroxidase (HRP)-conjugated sheep anti-mouse secondary antibody (Amersham, Little Chalfont, Buckinghamshire, England). FasL rabbit polyclonal antibody (Santa Cruz Biotechnology) was used in conjunction with an HRP-conjugated donkey anti-rabbit secondary antibody (Amersham). Equal loading was assessed using a β-tubulin mouse monoclonal primary antibody (Sigma).

[7] = test system: c-FLIPL-overexpressing HCT116p53+/+ cell lines (HFL17, HFL24); assay: Growth inhibition (MTT) in c-FLIPL-overexpressing HCT116p53+/+ cell lines versus HLacZ; format: cell-based, human
Procedure: as §3

[8] = test system: HCT116p53-/- cells; assay: Flow cytometric analysis of apoptosis, HCT116p53-/- cells; format: cell-based, human; details: for cells in the sub-G0/G1 fraction (apoptosis): HCT116p53-/- cells, 1 nM siRNA, no drug, 5 μM 5-FU, 5 μM oxaliplatin or 1 μM CPT-11, 72 hours
Procedure: as §2
(§7) siRNA transfections. FLIP-targeted siRNA was designed using the Ambion siRNA target finder and design tool (www.ambion.com/techlib/misc/siRNA_finder.html) to inhibit both splice variants of c-FLIP. Both c-FLIP-targeted (FT) and scrambled control (SC) siRNA were obtained from Xeragon (Germantown, Md.). The FT siRNA sequence used was: […]. The FL siRNA sequence used was: […]. The control non-silencing siRNA sequence (SC) used was: […]. siRNA transfections were performed on sub-confluent cells incubated in Optimem medium using the oligofectamine reagent (both from Life Technologies Inc) according to the manufacturer's instructions.

[9] = test system: HCT116p53+/+ cells; assay: Flow cytometric analysis of apoptosis, HCT116p53+/+ cells; format: cell-based, human; details: for cells in the sub-G0/G1 apoptotic fraction: 0.5 nM siRNA, no drug, 5 μM 5-FU or 1 μM oxaliplatin for 48 hours
Procedure: as §2, §7

[10] = test system: MCF-7 cells; format: cell-based; details: alone or in combination with 5-FU (data not shown)
Procedure: Cell Viability Assays. […] To assess chemotherapy/siRNA interactions, 20,000-50,000 cells were seeded per well on 24-well plates. Twenty-four hours later, the cells were transfected with FLIP-targeted (FT) or scrambled siRNA (SC). Four hours after transfection, the cells were treated with a range of concentrations of each drug for a further 72-96 hours. MTT (0.5 mg/ml) was added to each well and the cells were incubated at 37° C. for a further 2 hours. […] FLIP-targeted siRNA was designed using the Ambion siRNA target finder and design tool (www.ambion.com/techlib/misc/siRNA_finder.html) to inhibit both splice variants of c-FLIP. Both c-FLIP-targeted (FT) and scrambled control (SC) siRNA were obtained from Xeragon (Germantown, Md.). The FT siRNA sequence used was: [NT] The FL siRNA sequence used was: [NT] The control non-silencing siRNA sequence (SC) used was: [NT] siRNA transfections were performed on sub-confluent cells incubated in Optimem medium using the oligofectamine reagent (both from Life Technologies Inc) according to the manufacturer's instructions.

[11] = test system: c-FLIP; assay: Western blot of c-FLIP expression after siRNA transfection, HCT116p53+/+ cells; format: cell-based, human; details: for down-regulation of c-FLIP expression: nanomolar concentrations
Procedure: as §6
siRNA transfections. FLIP-targeted siRNA was designed using the Ambion siRNA target finder and design tool (www.ambion.com/techlib/misc/siRNA_finder.html) to inhibit both splice variants of c-FLIP. Both c-FLIP-targeted (FT) and scrambled control (SC) siRNA were obtained from Xeragon (Germantown, Md.). The FT siRNA sequence used was: AAGCAGTCTGTTCAAGGAGCA. The FL siRNA sequence used was: AAGGAACAGCTTGGCGCTCAA. The control non-silencing siRNA sequence (SC) used was: AATTCTCCGAACGTGTCACGT. siRNA transfections were performed on sub-confluent cells incubated in Optimem medium using the oligofectamine reagent (both from Life Technologies Inc) according to the manufacturer's instructions.

[12] = test system: c-FLIP; assay: Western blot of c-FLIP expression after siRNA transfection, MCF-7 cells; format: cell-based; details: 10 nM FT siRNA
Procedure: as §6
(§8) siRNA transfections. FLIP-targeted siRNA was designed using the Ambion siRNA target finder and design tool (www.ambion.com/techlib/misc/siRNA_finder.html) to inhibit both splice variants of c-FLIP. Both c-FLIP-targeted (FT) and scrambled control (SC) siRNA were obtained from Xeragon (Germantown, Md.). The FT siRNA sequence used was: AAGCAGTCTGTTCAAGGAGCA. The FL siRNA sequence used was: AAGGAACAGCTTGGCGCTCAA. […]

[13] = test system: c-FLIP; assay: Western blot of c-FLIP expression after siRNA transfection, HCT116p53-/- cells; format: cell-based, human; details: 1 nM FT siRNA
Procedure: as §6, §8

[14] = test system: c-FLIP; assay: Western blot of c-FLIP expression after siRNA transfection, H630 cells; format: cell-based; details: 1 nM, 24 hours
Procedure: as §6, §8

[15] = test system: c-FLIP; assay: Western blot of c-FLIP expression after siRNA transfection, RKO cells; format: cell-based; details: 1 nM, 24 hours
Procedure: as §6, §8

[16] = test system: RKO cells; assay: MTT cell viability assay, RKO cells; format: cell-based; details: absence of chemotherapy, read-out: IC50(72h) dose
Procedure: as §3, §4
(§9) Statistical Analyses. The nature of the interaction between the chemotherapeutic drugs and FLIP-targeted siRNAs was determined by calculating the combination index (CI) according to the method of Chou and Talalay (14). CI values were calculated from isobolograms generated using the CalcuSyn software programme (Microsoft Windows). […]

[17] = test system: HCT116p53-/- cells; assay: MTT cell viability assay, HCT116 p53 null cells; format: cell-based, human; details: for synergy with CH-11 (RI from MTT): HCT116 p53 null, drug 24 hours then CH-11 200 ng/ml for 48 hours
Procedure: as §3, §4, §5

[18] = test system: H630 cells; assay: MTT cell viability assay, H630 cells; format: cell-based; details: absence of chemotherapy, read-out: IC50(72h) dose
Procedure: as §3, §4, §9

[19] = biological target: Fas death receptor (UniProt P25445); assay: cell-based or functional assay
[20] = adjuvant setting of colorectal cancer; cited from earlier work

Chain of Fas death receptor (P25445 26-335 limits assumed): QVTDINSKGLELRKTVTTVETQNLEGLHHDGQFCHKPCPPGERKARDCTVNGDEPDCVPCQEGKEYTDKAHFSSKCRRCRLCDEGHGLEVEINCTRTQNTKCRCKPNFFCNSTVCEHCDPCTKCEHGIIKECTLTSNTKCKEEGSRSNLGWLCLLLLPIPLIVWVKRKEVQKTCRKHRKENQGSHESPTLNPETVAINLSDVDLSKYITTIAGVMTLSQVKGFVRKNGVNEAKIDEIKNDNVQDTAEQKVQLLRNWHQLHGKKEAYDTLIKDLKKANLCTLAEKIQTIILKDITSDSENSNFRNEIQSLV

O=c1[nH]cc(F)c(=O)[nH]1 [5-FU]
cells in the sub-G1/G0 apoptotic fraction [1]: ~41% | cells in the sub-G1/G0 apoptotic fraction [2]: ~17% | cells in the sub-G1/G0 apoptotic fraction [3]: ~15% | response rates [4]: 10-15% | IC60(72h) dose [5]: 5000 nM | up-regulation of Fas expression [6]: ~12 fold

O=C1[O][Pt]2([NH][C@@H]3CCCC[C@H]3[NH]2)[O]C1=O [OXA, oxaliplatin]
increase in the IC50(72h) dose caused by c-FLIPL overexpression [7]: 1.7-2.0 fold | IC60(72h) dose [5]: 1000 nM

SC siRNA: control non-silencing siRNA; sequence AATTCTCCGAACGTGTCACGT (AATTCTCCGAACGTGTCACGT; chemistry not given here)
cells in the sub-G0/G1 fraction (apoptosis) [8]: ~9% | cells in the sub-G0/G1 apoptotic fraction [9]: ~9% | effect on cell viability [5]: no significant effect on cell viability | effect on cell viability ([5]; listed as Control siRNA): no effect on cell viability | effect on cell viability [10]: no effect on cell viability

FL siRNA: siRNA specifically down-regulating c-FLIPL; sequence AAGGAACAGCTTGGCGCTCAA (AAGGAACAGCTTGGCGCTCAA; listed as DNA, chemistry not given here)
down-regulation of c-FLIP expression [11]: specifically down-regulate the long splice form without affecting expression of c-FLIPS | apoptosis in the absence of chemotherapy ([9]; PARP cleavage and flow cytometry (data not shown)): induced apoptosis

FT siRNA: siRNA inhibiting both splice variants of c-FLIP; sequence AAGCAGTCTGTTCAAGGAGCA (AAGCAGTCTGTTCAAGGAGCA; chemistry not given here)
down-regulation of c-FLIP expression [12]: potently down-regulated expression of both c-FLIP splice variants | down-regulation of c-FLIP expression [11]: potently down-regulated expression of both c-FLIP splice variants | time at which both c-FLIP splice forms were efficiently down-regulated ([11]; post-transfection, 1 and 10 nM FT siRNA): 8 h | cells in the sub-G0/G1 fraction (apoptosis) [8]: ~14% | down-regulation of c-FLIP expression [13]: effectively down-regulated | down-regulation of c-FLIP protein [14]: down-regulated c-FLIP protein | cells in the sub-G0/G1 apoptotic fraction [9]: ~26% | down-regulation of c-FLIP protein [15]: down-regulated c-FLIP protein | IC50 [16]: ~5 nM | IC50 ([5]; HCT116 p53 wild type cells, absence of chemotherapy, read-out: IC50(72h) dose): ~0.7 nM | IC50 ([17]; HCT116 p53 null cells, absence of chemotherapy, read-out: IC50(72h) dose): ~2.5 nM | IC50 [18]: ~25 nM

agonistic Fas monoclonal antibody CH-11
cells in the sub-G1/G0 apoptotic phase (flow cytometry, MCF-7, 5-FU 72 h then 250 ng/ml CH-11 24 h) [19]: 55% | cells in the sub-G1/G0 apoptotic phase (flow cytometry, MCF-7, OXA then CH-11) [19]: 50% | cells in the sub-G1/G0 apoptotic phase (flow cytometry, MCF-7, TDX 72 h then 250 ng/ml CH-11 24 h) [19]: 60%

5-FU/leucovorin
3-year survival [20]: 72.9%

Cc1nc2ccc(CN(C)c3ccc(C(=O)N[C@@H](CCC(=O)O)C(=O)O)s3)cc2c(=O)[nH]1 [TDX, tomudex]
synergy with CH-11 (RI from MTT) [5]: significant synergy | synergy with CH-11 (RI from MTT) [17]: synergy | up-regulation of Fas expression [6]: ~7 fold

CCc1c2c(nc3ccc(OC(=O)N4CCC(N5CCCCC5)CC4)cc13)-c1cc3c(c(=O)n1C2)COC(=O)[C@]3(O)CC [CPT-11, irinotecan]
synergy with CH-11 (propidium iodide staining) ([8]; HCT116 p53 null, drug 24 hours then CH-11 50 ng/ml 24 hours): significant synergy | synergy with CH-11 (RI from MTT) [5]: significant synergy | synergy with CH-11 (RI from MTT) [17]: synergy
